Drawing on patent publication US11548884B2, “Cyclic amidine compounds for the treatment of autoimmune disease” (Hoffmann-La Roche Inc., priority 2018, dated 2023), this text covers IC50 for 9 molecules.

The target in the assay is T1, human TLR8 (Homo sapiens, UniProt Q9NR97).
T1 sequence (Q9NR97 27-1041): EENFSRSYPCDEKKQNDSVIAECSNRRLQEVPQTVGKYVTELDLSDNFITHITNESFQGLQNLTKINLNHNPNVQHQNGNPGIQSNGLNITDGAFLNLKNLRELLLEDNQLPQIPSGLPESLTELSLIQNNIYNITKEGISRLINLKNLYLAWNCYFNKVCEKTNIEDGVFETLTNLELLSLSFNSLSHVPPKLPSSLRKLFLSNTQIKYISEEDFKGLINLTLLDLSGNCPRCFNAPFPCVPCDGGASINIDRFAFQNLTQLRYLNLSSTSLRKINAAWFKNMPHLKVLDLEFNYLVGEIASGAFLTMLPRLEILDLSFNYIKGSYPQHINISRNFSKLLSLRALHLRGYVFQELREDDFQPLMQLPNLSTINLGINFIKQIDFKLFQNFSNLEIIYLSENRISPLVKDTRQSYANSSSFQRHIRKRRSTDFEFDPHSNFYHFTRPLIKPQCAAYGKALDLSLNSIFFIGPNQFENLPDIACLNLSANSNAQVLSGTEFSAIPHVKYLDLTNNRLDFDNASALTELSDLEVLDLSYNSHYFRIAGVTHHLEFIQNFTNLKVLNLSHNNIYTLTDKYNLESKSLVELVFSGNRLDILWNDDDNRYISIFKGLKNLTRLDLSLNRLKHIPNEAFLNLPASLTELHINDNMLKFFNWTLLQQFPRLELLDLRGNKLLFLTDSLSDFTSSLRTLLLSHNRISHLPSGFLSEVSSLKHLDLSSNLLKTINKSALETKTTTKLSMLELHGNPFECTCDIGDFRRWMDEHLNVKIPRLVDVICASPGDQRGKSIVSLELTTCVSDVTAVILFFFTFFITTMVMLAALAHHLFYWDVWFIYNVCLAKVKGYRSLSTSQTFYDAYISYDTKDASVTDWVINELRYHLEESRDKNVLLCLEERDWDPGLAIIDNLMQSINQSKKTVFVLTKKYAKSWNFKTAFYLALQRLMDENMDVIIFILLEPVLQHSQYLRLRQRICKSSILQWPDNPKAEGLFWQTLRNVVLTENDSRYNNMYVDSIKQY
Kind of assay: HEK293-Blue-hTLR-8 cells assay (SEAP reporter, R848 stimulation). The assay is classed as cell-based. To be noted: HEK293-Blue-hTLR8 cells, R848 ligand, 20 h incubation. The procedure: The following tests were carried out in order to determine the activity of the compounds of formula (I) in HEK293-Blue-hTLR-7/8/9 cells assay.
HEK293-Blue-hTLR-8 Cells Assay:
A stable HEK293-Blue-hTLR-8 cell line was purchased from InvivoGen (Cat. #: hkb-htlr8, San Diego, Calif., USA). These cells were originally designed for studying the stimulation of human TLR8 by monitoring the activation of NF-κB. A SEAP (secreted embryonic alkaline phosphatase) reporter gene was placed under the control of the IFN-β minimal promoter fused to five NF-κB and AP-1-binding sites. The SEAP was induced by activating NF-κB and AP-1 via stimulating HEK-Blue hTLR8 cells with TLR8 ligands. Therefore the reporter expression was declined by TLR8 antagonist under the stimulation of a ligand, such as R848, for incubation of 20 h. The cell culture supernatant SEAP reporter activity was determined using QUANTI-Blue™ kit (Cat. #: rep-qb1, Invivogen, San Diego, Calif., USA) at a wavelength of 640 nm, a detection medium that turns purple or blue in the presence of alkaline phosphatase.
HEK293-Blue-hTLR8 cells were incubated at a density of 250,000˜450,000 cells/mL in a volume of 170 μL in a 96-well plate in Dulbecco's Modified Eagle's medium (DMEM) containing 4.5 g/L glucose, 50 U/mL penicillin, […], […], 2 mM L-glutamine, 10% (v/v) heat-inactivated fetal bovine serum with addition of 20 μL test compound in a serial dilution in the presence of final DMSO at 1% and 10 μL of 60 uM R848 in above DMEM, perform incubation under 37° C. in a CO2 incubator for 20 h. Then 20 μL of the supernatant from each well was incubated with 180 μL Quanti-blue substrate solution at 37° C. for 2 h and the absorbance was read at 620˜655 nm using a spectrophotometer. The signalling pathway that TLR8 activation leads to downstream NF-κB activation has been widely accepted, and therefore similar reporter assay was modified for evaluating TLR8 antagonist.

The structures appear in SMILES notation. pIC50: −log10 of the molar value. Bounds are passed on as bounds.

As to `C[C@@H]1CN(c2ccc(C#N)c3ncccc23)C[C@H](C2=Nc3cccc(N4CCNCC4)c3CN2)O1` [Example 6, 5-[(2R,6R)-2-methyl-6-(5-piperazin-1-yl-3,4-dihydroquinazolin-2-yl)morpholin-4-yl]quinoline-8-carbonitrile], the pIC50 (in general, the IC50 on a negative log10 scale, so that one unit is a factor of ten) was 8.10.

Regarding `C[C@@H]1CN(c2ccc(C#N)c3ncccc23)C[C@H](C2=Nc3ccc(N4CCNCC4)cc3CN2)O1` [Example 7, 5-[(2R,6R)-2-methyl-6-(6-piperazin-1-yl-3,4-dihydroquinazolin-2-yl)morpholin-4-yl]quinoline-8-carbonitrile], the pIC50 was above 8.52. In the case of `C[C@@H]1CN(c2ccc(C#N)c3ncccc23)C[C@H](C2=Nc3cc(N4CCNCC4)ccc3CN2)O1` [Example 8, 5-[(2R,6R)-2-methyl-6-(7-piperazin-1-yl-3,4-dihydroquinazolin-2-yl)morpholin-4-yl]quinoline-8-carbonitrile] it was 8.40; in that of `C[C@@H]1CN(c2ccc(C#N)c3ncccc23)C[C@H](C2=Nc3c(cccc3N3CCNCC3)CN2)O1` [Example 9, 5-[(2R,6R)-2-methyl-6-(8-piperazin-1-yl-3,4-dihydroquinazolin-2-yl)morpholin-4-yl]quinoline-8-carbonitrile], 7.34; in that of `C[C@@H]1CN(c2ccc(C#N)c3ncccc23)C[C@H](C2=Nc3cccc(N4CCN(C)CC4)c3CN2)O1` [Example 12, 5-[(2R,6R)-2-methyl-6-[5-(4-methylpiperazin-1-yl)-3,4-dihydroquinazolin-2-yl]morpholin-4-yl]quinoline-8-carbonitrile], 7.85. In turn, `C[C@@H]1CN(c2ccc(C#N)c3ncccc23)C[C@H](C2=Nc3cccc(N4CCC5(CCNC5)C4)c3CN2)O1` (stereo partly drawn) [Example 13, 5-[(2R,6R)-2-[5-(2,7-diazaspiro[4.4]nonan-2-yl)-3,4-dihydroquinazolin-2-yl]-6-methyl-morpholin-4-yl]quinoline-8-carbonitrile] showed a pIC50 of 7.06. This pIC50 lies 0.79 log units lower than the previous one.

Take `C[C@@H]1CN(c2ccc(C#N)c3ncccc23)C[C@H](C2=Nc3cccc(C4=CCNCC4)c3CCN2)O1` [Example 16, 5-[(2R,6R)-2-methyl-6-[6-(1,2,3,6-tetrahydropyridin-4-yl)-4,5-dihydro-3H-1,3-benzodiazepin-2-yl]morpholin-4-yl]quinoline-8-carbonitrile]: the pIC50 was 6.72. Molecule `C[C@@H]1CN(c2ccc(C#N)c3ncccc23)C[C@H](C2=Nc3ccc(N4CCNCC4)cc3CCN2)O1` [Example 17, 5-[(2R,6R)-2-methyl-6-(7-piperazin-1-yl-4,5-dihydro-3H-1,3-benzodiazepin-2-yl)morpholin-4-yl]quinoline-8-carbonitrile] gave a pIC50 of 6.83. `C[C@@H]1CN(c2ccc(C#N)c3ncccc23)C[C@H](C2=Nc3cccc(C4CCNCC4)c3CN2)O1` [Example 18, 5-[(2R,6R)-2-methyl-6-[5-(4-piperidyl)-3,4-dihydroquinazolin-2-yl]morpholin-4-yl]quinoline-8-carbonitrile] had a pIC50 of 7.15.
